# Test results published in PubChem BioAssay (NCI).
# Where “and” joins values, the source holds several entries; their conditions need not be identical. Identical values can stand only once.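 Step 1: Grow cells in 96-well plates. Step 2: Expose to compound for 48 hours at 5 concentrations. Step 3: Interpolate endpoints linearly; if unreached, use highest concentration. Abbreviation: GI50, concentration required for 50% inhibition of growth. The concentration for full growth arrest is given as TGI.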
# How the values were obtained:
# Assay in all cases: NCI anticancer screen, dose series, 48 h
# HS 578T breast = test system: HS 578T breast
# NCI/ADR-RES ovarian = test system: NCI/ADR-RES ovarian
# BT-549 breast = test system: BT-549 breast
# MDA-MB-435 = test system: MDA-MB-435
# PC-3 prostate = test system: PC-3 prostate
# T-47D breast = test system: T-47D breast
# LXFL 529 NSCLC = test system: LXFL 529 NSCLC
# DMS 273 small cell lung = test system: DMS 273 small cell lung
# M19-MEL melanoma = test system: M19-MEL melanoma
Structure (SMILES),GI50 (HS 578T breast) [µM],TGI (HS 578T breast),GI50 (NCI/ADR-RES ovarian) [µM],TGI (NCI/ADR-RES ovarian) [µM],GI50 (BT-549 breast) [µM],TGI (BT-549 breast),GI50 (MDA-MB-435) [µM],TGI (MDA-MB-435),GI50 (PC-3 prostate) [µM],TGI (PC-3 prostate),GI50 (T-47D breast),TGI (T-47D breast),TGI (LXFL 529 NSCLC) [µM],TGI (DMS 273 small cell lung) [µM],TGI (M19-MEL melanoma) [µM],GI50 (LXFL 529 NSCLC) [µM],GI50 (DMS 273 small cell lung) [µM],GI50 (M19-MEL melanoma) [µM]
CC(C)n1nc(-c2cc3cc(O)ccc3[nH]2)c2c(N)ncnc21,0.109,0.503 µM,0.348,7.22,0.147,1.85 µM,0.219,1.77 µM,0.086,6.45 µM,0.0435 µM,0.417 µM,,,,,,
CC(C)(C)c1cc(Br)c(O)c(CN(Cc2cc(C(C)(C)C)cc(Br)c2O)C2CCCCC2)c1,,28.4 µM,,24.3,,29.2 µM,,27.4 µM,,28.1 µM,,21.4 µM,,,,,,
Cc1cn(C2CC(N(O)Cc3ccccc3)C(CO[Si](C)(C)C(C)(C)C)O2)c(=O)[nH]c1=O (configuration not stated),,41.6 µM and 34.5 µM,,,,34.7 µM and 30 µM,,33.1 µM and 31.9 µM,,61.7 µM and 28 µM,61.7 µM and 18.6 µM,> 100 µM and 33.6 µM,,,,,,
CS/C(N)=N\NC(=O)CCC(=O)Nc1ccccc1C(F)(F)F,,,,,,,,,,,,,> 100,> 100,> 100,,,
O=C(NC1=CC(=O)c2ccccc2C1=O)c1ccccc1,1.09,71.9 µM,1.26,14.9,0.706,14.9 µM,0.94,2.29 µM,0.421,2.44 µM,0.777 µM,2.68 µM,,,,,,
COC(C(O)CO)C(O)C(O)C(=O)NNc1ccccc1 (configuration not stated),,> 100 µM,,> 100,,> 100 µM,,> 100 µM,,> 100 µM,,> 100 µM,,,,,,
CN1C(=O)c2cccc3cc([N+](=O)[O-])cc(c23)C1=O,,> 10 µM,,> 10,,> 10 µM,,> 10 µM,,> 10 µM,,> 10 µM,,,,,,
O=C(N/N=C/c1ccc(Cl)cc1)c1ccc(C(F)(F)F)nc1Nc1cccc(C(F)(F)F)c1,2.98,10.2 µM,1.96,6.99,2.72,11.7 µM,3.17,20.1 µM,2.05,8.03 µM,2.06 µM,10.7 µM,,,,,,
CCC[CH2][Sn]1([CH2]CCC)[O]CC(CN2CCCC2)[O]1 (configuration not stated),,,,,,,,,,,,,15.3,30.8,29.4,4.33,16.3,14.6
COC1=C(C)C(=O)c2c(c(COC(N)=O)c3n2CC2C3N2C)C1=O (configuration not stated),,0.986 µM,,0.336,,0.167 µM,,0.0921 µM,,0.244 µM,,0.201 µM,,,,,,
CCOc1ccccc1NC(=O)CC(C(=O)OC)C(=O)C(=O)OC (configuration not stated),,,,,,,,,,,,,> 100,> 100,> 100,,,
COc1ccccc1CNCCCN1C(=O)c2ccc3c4c(ccc(c24)C1=O)C(=O)N(CCCOCCCCOCCCN)C3=O,2.02,5.7 µM,1.46,4.37,,,0.2,0.429 µM,1.45,5.17 µM,0.926 µM,3.34 µM,,,,,,
N#C/C(=C1C=C(Br)/C(=N\O)C=C\1Cl)c1cccc2ccccc12,,17.5 µM,,> 100,,22.1 µM,,10.4 µM,,10.9 µM,,12.9 µM,,,,,,
COc1ccc(Nc2c3ccccc3nc3occc23)cc1,6.23,> 67.6 µM,0.921,> 36.8,18.4,45.8 µM,0.171,,3.25,> 39.5 µM,,> 38.2 µM,,,,,,
CN1C/C=C\CCOc2cccc(c2)-c2ccnc(n2)Nc2cccc(c2)C1,0.0641,0.82 µM,0.0654,1.45,0.0789,0.393 µM,0.0624,0.195 µM,0.0713,0.435 µM,0.0413 µM,0.334 µM,,,,,,
c1ccc2c(c1)ccn2CCc1c[nH]c2ccccc12,,> 10 µM,,> 10,,> 10 µM,,> 10 µM,,> 10 µM,,> 10 µM,,,,,,
COc1cc2c3c(n(CCCNC(=O)OCC4c5ccccc5-c5ccccc54)c(=O)c2cc1OC)-c1cc2c(cc1/C3=C\CCNC(=O)OCC1c3ccccc3-c3ccccc31)OCO2,1.29,10.2 µM,> 38,> 50,12.4,> 50 µM,> 28.9,49 µM,> 50,> 50 µM,> 50 µM,> 50 µM,,,,,,
CCCN1CCC(=O)N(CCC(F)(F)C(F)(F)C(F)(F)C(F)(F)C(F)(F)C(F)(F)F)C1=S,,> 100 µM,,,,> 100 µM,,> 100 µM,,> 100 µM,,> 100 µM,,,,,,
COC(=O)[C@@H](C)CNS(=O)(=O)N(c1cc(C(F)(F)F)cc(C(F)(F)F)c1)C1CCN(Cc2ccc(F)cc2)CC1,11.3,27.1 µM,10.7,23.4,8.34,22.9 µM,10.2,24.8 µM,7.61,20.8 µM,5.34 µM,19.6 µM,,,,,,
CCOC(=O)[C@@H](N)CCC(=O)N[C@@H](CSCc1ccccc1)C(=O)N[C@@H](C(=O)OCC)c1ccccc1,16.6,47.3 µM,> 100,> 100,17.5,33 µM,16.5,32.4 µM,16.5,37.3 µM,14.8 µM,33.8 µM,,,,,,
CN(C)C(=O)c1cc2cnc(Nc3ccc(-c4csc5c(=S)cc(N6CCOCC6)oc45)cc3)nc2n1C1CCCC1,0.469,3.98 µM,1.02,> 50,0.698,3.83 µM,0.687,> 50 µM,0.312,> 10.8 µM,0.198 µM,> 50 µM,,,,,,
N#CC(NNC(=O)Cc1ccccc1)c1c(O)ccc2ccccc12 (configuration not stated),,50.5 µM,,16,,24.7 µM,,84.1 µM,,> 62.9 µM,,60.4 µM,,19.1,16.3,,,
Cn1c2c(c3ccccc31)CC1c3c(c4ccccc4n3C)CC21 (configuration not stated),,> 100 µM,,> 100,,> 100 µM,,> 100 µM,,> 100 µM,,> 100 µM,,,,,,

Structure (SMILES),GI50 (HS 578T breast) [µM],TGI (HS 578T breast),GI50 (NCI/ADR-RES ovarian) [µM],TGI (NCI/ADR-RES ovarian) [µM],GI50 (BT-549 breast) [µM],TGI (BT-549 breast),GI50 (MDA-MB-435) [µM],TGI (MDA-MB-435),GI50 (PC-3 prostate) [µM],TGI (PC-3 prostate),GI50 (T-47D breast),TGI (T-47D breast),TGI (LXFL 529 NSCLC) [µM],TGI (DMS 273 small cell lung) [µM],TGI (M19-MEL melanoma) [µM],GI50 (LXFL 529 NSCLC) [µM],GI50 (DMS 273 small cell lung) [µM],GI50 (M19-MEL melanoma) [µM]
NS(=O)(=O)c1ccc(NC2(C(=O)O)CCCC2)cc1,,> 100 µM,,> 100,,> 100 µM,,> 100 µM,,> 100 µM,,> 100 µM,,,,,,
CCCCCCCC/C=C/CCCCCCCC(=O)OC[C@H]1O[C@@H](n2ccc(N)nc2=O)C(F)(F)[C@@H]1O,> 59.9,> 100 µM,< 0.0217,> 100,,> 60.6 µM,< 0.0266,> 100 µM,0.752,> 100 µM,0.152 µM,> 100 µM,,,,,,
CCOC(=O)c1c(C)n(Cc2ccc(Cl)cc2Cl)c2c1c(CN(C)C)c(O)c1[nH]cnc12,29.1,81.8 µM,,,23.6,48.5 µM,23.6,51.1 µM,,,3.55 µM,15.2 µM,,,,,,
CN1CCN(CCCOc2ccc3nc(Nc4ccc(Cl)c(C(F)(F)F)c4)ccc3c2)CC1,12.5,32.1 µM,14.7,33.2,14.2,27.7 µM,11.7,24.2 µM,13.3,27.1 µM,17.6 µM,37.3 µM,,,,,,
COC1=CC(=O)c2nc(-c3cccc(C)n3)[nH]c2C1=O,25.3,76.7 µM,32.5,> 100,17.8,36.5 µM,35.6,> 100 µM,11.8,39.5 µM,15.8 µM,58.1 µM,,,,,,
COC(=O)[C@H](C)NC(=O)NC(=O)NC(=O)CI,21.4,54.1 µM,19.1,43,15,28.6 µM,10.3,23.5 µM,17.1,32.2 µM,7.46 µM,32.2 µM,,,,,,
COc1ccc(-c2n[nH]nc2-c2cc(OC)c(OC)c(OC)c2)cc1,< 0.01,> 83.9 µM,,,,,< 0.01,< 0.01 µM,0.0638,> 100 µM,2.66 µM,57.3 µM,,,,,,
Cc1cccc(NC(=O)/C(=N\NC(C)(C)C)C2NC(=S)NC2=O)c1C (configuration not stated),,,,,,,,,,,,,> 100,,> 100,,,
COc1ccc(/C=C/c2ccnc3ccccc23)c(OC)c1,,> 10 µM,,> 10,,> 10 µM,,5.09 µM,,> 10 µM,,> 10 µM,,,,,,
C=C1C(=O)O[C@H]2[C@H]1CC/C(COC(=O)C(=O)c1cn(Cc3ccccc3)c3ccccc13)=C\CC[C@@]1(C)O[C@@H]21,3.35,29.9 µM,2.75,9.83,1.8,4.1 µM,2.41,7.77 µM,2.14,4.35 µM,2.04 µM,4.85 µM,,,,,,
C[C@@]12CC=C3c4nc(Nc5cccc(O)c5)sc4CC[C@]3(C)[C@H]1CC[C@]1(C)C(=O)CC[C@@H]21,2.43,> 100 µM,3.1,> 100,1.61,6.47 µM,,,1.41,7.02 µM,2.61 µM,8.3 µM,,,,,,
COc1cc(/C=C/c2cc(/C=C/c3ccc(O)c(OC)c3)n(C(=O)Nc3ccc(F)c(Cl)c3)n2)ccc1O,0.346,2.74 µM,0.126,3.09,0.921,7.98 µM,0.0223,0.102 µM,0.365,6.58 µM,0.634 µM,2.32 µM,,,,,,
COC(=O)C1=CNC=C(C(=O)OC)C1C1=CC(=O)C(C)=CC1=O,25,66.5 µM,16.5,31.2,18.2,34.3 µM,15.9,29.5 µM,16.3,30.5 µM,17.9 µM,44.6 µM,,,,,,
CCCCC(O)(c1ccc(Cl)cc1)C(CN1CCOCC1)c1ccc(Cl)cc1 (configuration not stated),16.8,46.5 µM,12,32.2,15.7,31 µM,15.3,39 µM,7.68,23.9 µM,11.3 µM,25 µM,,,,,,
NP(=O)(Oc1c2occc2cc2ccc(=O)oc12)N(CCCl)CCCl (configuration not stated),,> 100 µM,,> 100,,> 100 µM,,> 100 µM,,> 100 µM,,> 100 µM,,,,,,
C[N+](C)(C)CC1CCCCCCCCCCC1=O (configuration not stated),,> 100 µM,,> 100,,> 100 µM,,> 100 µM,,> 100 µM,,> 100 µM,,,,,,
Cc1cc(S(=O)(=O)Nc2nnc(-c3ccccc3)c(-c3ccccc3)n2)c(SCC(N)=O)cc1Cl,32.5,> 100 µM,> 100,> 100,27.4,90.6 µM,51.5,> 100 µM,94.8,> 100 µM,34.5 µM,> 100 µM,,,,,,
CC(=O)CSCc1ccccn1,,7.23 µM,,> 100,,> 100 µM,,> 100 µM,,> 100 µM,,> 100 µM,,,,,,
COc1cc2ncnc(Nc3ccc(C)c(O)c3)c2cc1OC,5.36,18.8 µM,16.4,> 25,12.4,> 25 µM,> 25,> 25 µM,> 19.8,> 25 µM,7.79 µM,> 25 µM,,,,,,
NS(=O)(=O)c1ccc(N=Nc2c(O)[nH]c3ccc(-c4cnco4)cc23)cc1,> 25,> 25 µM,> 25,> 25,18,> 25 µM,> 25,> 25 µM,> 25,> 25 µM,> 25 µM,> 25 µM,,,,,,
O=C(N/N=C/c1ccccc1)c1c(-c2cccnc2)cnc2ccccc12,,,,> 100,,> 100 µM,,,,> 100 µM,,,,,,,,
C=C1C(=O)O[C@@H]2/C=C(\C)CC/C=C(/COC(C)=O)C[C@@H](OC(C)=O)[C@@H]12,,> 70.2 µM,,57.8,,16.7 µM,,54.4 µM,,36.4 µM,,26.6 µM,,,,,,
Clc1nc(Cl)c(Cl)c(-c2ccccc2)n1,,> 100 µM,,> 100,,7.81 µM,,28.7 µM,,39.3 µM,,,,,,,,
